Assay [1] deals with T1, PAI-1 (Homo sapiens, UniProt P05121).
T1 construct: made in house; host or cells: E. coli (vector pET3a)
Put plainly: Kinetics of peptide annealing: residual PAI inhibitory activity assayed with β-trypsin and S-2222. It counts as biochemical. The settings on record: for lowest PAI-1 functional half-life obtained with increasing concentrations of peptide: 9.0 hr in the absence of peptide.

Assay [2] has as its target T1, PAI-1. The description is as above. It counts as biochemical. The settings on record: for IC50: FIG. 2, read-out: IC50 for the inactivation of PAI-1; for kobs / k: 25° C.; for half-life of PAI-1 decreased to: summary of Example 2, peptide concentration not given. The method, then:
PAI-1 (6.4 μM) was incubated with increasing concentrations of each peptide at 23° C. and the (T1/2) of PAI-1 inactivation was determined by measuring the PAI-1 activity remaining over time.
Peptides were dissolved in 1 mM HCl+1% TWEEN-80 (the three PAI peptides) (SEQ ID NOS: 1-3), or in 0.1M HEPES (SEQ ID NOS: 4-5), 0.1M NaCl, 0.1% PEG-8000, pH […] (the two consensus peptides). Peptides were annealed to active PAI by incubation of active PAI in 0.1M HEPES, 0.1M NaCl, 0.1% PEG-8000, pH 7.4 with a peptide in its solvent. Ten percent of the final incubation mixture consisted of the peptide solvent. Incubation was carried out at 25° C. until no PAI inhibitory activity remained as determined by kinetics rate assays with trypsin, described below. The final concentration of PAI in the incubation mixture was either 0.9 μM (for kinetics assays) or 6.3 μM (for gels and purification). The peptide concentrations varied greatly due to the individual solubilities and rates of insertion of each peptide. These concentrations are given in the legends of the appropriate figures.
During annealing of 0.9 μM PAI with a peptide, the residual inhibitory activity of PAI was measured after varying incubation times by assaying an aliquot of the sample with β-trypsin. Trypsin (1 nM final concentration) was added to the chromogenic substrate S-2222 (950 μM) with 27 nM PAI sample. The absorbance at 405 nm was measured continuously for at least 12.5 min in a Shimadzu UV-265 UV-visible spectrophotometer. The pseudo-first order rate constant of trypsin is an indirect measure of the amount of PAI that has lost inhibitory activity due either to annealing or to becoming latent. The rate constant of controls containing the peptide solvent but no peptide was subtracted from that of the experimental assays in order to correct for the effect of the simultaneous change of PAI from the active to the latent state.

Assay [3] deals with T1, PAI-1. The assay can be described thus: Native gel electrophoresis of PAI incubated with peptide. It counts as binding. The method, then: SDS-polyacrylamide gel electrophoresis (SDS-PAGE) under nonreducing conditions was carried out according to the method of Laemmli (Laemmli, 1970) on 10% gels. Native gel electrophoresis with 5% gels was carried out by omitting SDS and boiling from Laemmli's method. All gels were stained with Coomassie brilliant blue. Gels of PAI-peptide samples were scanned with an LKB Ultroscan XL Laser Densitometer to determine the relative amounts of peptide-annealed and latent PAI.
Four of the five peptides have a net negative charge due to glutamic acid residues and the free carboxy terminus (FIG. 1). The wtPAI 8-mer has a net -1 charge (the carboxy terminus). The V→E PAI 8-mer (SEQ ID NO:3) and consensus 8-mer (SEQ ID NO:4) each have a -2 charge (the glutamic acid residue and the carboxyl group). […] The PAI 14-mer (SEQ ID NO:1) is uncharged since it contains no glutamic acid and the arginine and carboxyl groups neutralize each other. Because of the negative charges of 4 of the peptides, native gels of PAI annealed to these peptides should show a band which migrates more quickly than the band representative of free active PAI. Similarly, if one of these peptides is incubated with PAI but fails to form a strong interaction with PAI, native gels should show a band which migrates identically to the free PAI.

In assay [4] the test system is normal human plasma. Put plainly: Activated partial thromboplastin time (APTT) in normal human plasma, with porcine coronary thrombus extract. Type of assay: biochemical. The method, then: Platelets contain several factors that inhibit heparin, including platelet factor 4, heparatinase, and histidine-rich glycoprotein. In an attempt to study potential heparin resistance within the microenvironment of the coronary thrombus the coronary thrombi previously analyzed for PAI-1 content were also assessed for their capacity to inhibit heparin in vitro (Eitzman et al., 1994). Pharmaceutical grade, unfractionated heparin was added to normal human plasma in sufficient quantity (0.12 U/mL) to prolong the activated partial thromboplastin time (APTT) to approximately 2× control. APTT determinations were then repeated after the addition of 2.5 μL of thrombus extract per 100 μL of heparinized plasma.
Similar experiments were also performed using recombinant hirudin as anticoagulant. In these experiments, hirudin (0.17 μg/mL) was used to prolong the APTT to approximately twice control values. However, unlike the case with heparin, thrombus extracts had no effect on capacity of hirudin to prolong the APTT (FIG. 9a).

Ends that are not written are not given here.

T1 sequence (P05121 24-402): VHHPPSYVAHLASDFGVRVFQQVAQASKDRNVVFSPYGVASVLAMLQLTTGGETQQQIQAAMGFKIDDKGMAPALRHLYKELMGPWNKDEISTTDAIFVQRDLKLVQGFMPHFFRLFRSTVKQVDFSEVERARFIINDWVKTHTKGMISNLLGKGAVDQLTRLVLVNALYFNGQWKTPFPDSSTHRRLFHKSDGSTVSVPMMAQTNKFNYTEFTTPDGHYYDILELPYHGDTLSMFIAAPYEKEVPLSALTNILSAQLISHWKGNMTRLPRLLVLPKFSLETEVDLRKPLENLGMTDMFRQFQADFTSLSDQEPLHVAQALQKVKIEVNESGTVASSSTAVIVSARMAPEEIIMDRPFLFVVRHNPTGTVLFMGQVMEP

Consider “Ac-TEAAAATG [SEQ ID NO: 4, Thr-Glu-Ala-Ala-Ala-Ala-Thr-Gly]”, for which the “lowest PAI-1 functional half-life obtained with increasing concentrations of peptide” value in assay [1] (25° C.) came to 1.2 h. In addition, the k result in assay [1] (peptide 1.5 mM, 25° C.) is “.024 M⁻¹ s⁻¹”; in assay [1] (peptide 2.5 mM, 25° C.), “.024 M⁻¹ s⁻¹”; in assay [1] (peptide 3.5 mM, 25° C.), “.022 M⁻¹ s⁻¹”; in assay [1] (peptide 5.04 mM, 25° C.), “.021 M⁻¹ s⁻¹”; in assay [1] (peptide 7 mM, 25° C.), “.017 M⁻¹ s⁻¹”; in assay [1] (peptide 9 mM, 25° C.), “.017 M⁻¹ s⁻¹”. In addition, the k result in assay [1] (peptide 11 mM, 25° C.) was “.015 M⁻¹ s⁻¹”. Also, the kobs entry in assay [1] (peptide 1.5 mM, 25° C.) was “.13 h⁻¹”; in assay [1] (peptide 3.5 mM, 25° C.), “.28 h⁻¹”; in assay [1] (peptide 7 mM, 25° C.), “.44 h⁻¹”; in assay [1] (peptide 9 mM, 25° C.), “.54 h⁻¹”; in assay [1] (peptide 11 mM, 25° C.), “.58 h⁻¹”; in assay [2] (peptide 2.5 mM), “.21 h⁻¹”. In addition, the kobs result in assay [2] (peptide 5.04 mM) is “.38 h⁻¹”. Also, the “t1/2 of PAI-1 inactivation” value in assay [1] (peptide 1.5 mM, 25° C.) was found to be 5.4 h; in assay [1] (peptide 2.5 mM, 25° C.) it was 3.3 h; in assay [1] (peptide 3.5 mM, 25° C.), 2.5 h; in assay [1] (peptide 5.04 mM, 25° C.) it was 1.8 h; in assay [1] (peptide 7 mM, 25° C.) it was 1.6 h; in assay [1] (peptide 9 mM, 25° C.), 1.3 h. In addition, the “t1/2 of PAI-1 inactivation” value in assay [1] (peptide 11 mM, 25° C.) was found to be 1.2 h. Moreover, the IC50 (usually the concentration at which inhibition is half-maximal) in assay [2] turned out to be 1.6 mM. The “half-life of PAI-1 decreased to” value in assay [2] came to 1.3 h.

For “Ac-TEAAAATGAAATGR [SEQ ID NO: 5, TEAAAATGAAATGR]”, the “half-life of PAI inactivation” value in assay [1] (0.9 μM PAI, 1.2 mM peptide) was “about 12 min”. Also, the k result in assay [1] (peptide 1 mM, 25° C.) is “.027 M⁻¹ s⁻¹”; in assay [1] (peptide 1.3 mM, 25° C.), “.75 M⁻¹ s⁻¹”. Besides, the “t1/2 of PAI-1 inactivation” value in assay [1] (peptide 1 mM, 25° C.) is 7.2 h; in assay [1] (peptide 1.3 mM, 25° C.), “.20 h”. For the same substance, the kobs in assay [1] (peptide 1.3 mM, 25° C.) was 3.4 h⁻¹; in assay [2] (peptide 1 mM), “.097 h⁻¹”. Moreover, in assay [2], the “half-life of PAI-1 decreased to” value was 0.2 h.

With “Ac-TEASSSTA [SEQ ID NO: 3, Thr-Glu-Ala-Ser-Ser-Ser-Thr-Ala]”, the “lowest PAI-1 functional half-life obtained with increasing concentrations of peptide” value in assay [1] (25° C.) is 1.2 h. The k entry in assay [1] (peptide .05 mM, 25° C.) is “.50 M⁻¹ s⁻¹”; in assay [1] (peptide .15 mM, 25° C.), “.37 M⁻¹ s⁻¹”; in assay [1] (peptide .2 mM, 25° C.) it was “.40 M⁻¹ s⁻¹”; in assay [1] (peptide .246 mM, 25° C.), “.37 M⁻¹ s⁻¹”; in assay [1] (peptide .3 mM, 25° C.), “.39 M⁻¹ s⁻¹”; in assay [1] (peptide .5 mM, 25° C.), “.44 M⁻¹ s⁻¹”. Moreover, the k entry in assay [1] (peptide .6 mM, 25° C.) was “.45 M⁻¹ s⁻¹”; in assay [2] (peptide .1 mM), “.35 M⁻¹ s⁻¹”; in assay [2] (peptide .4 mM) it was “.33 M⁻¹ s⁻¹”. The “t1/2 of PAI-1 inactivation” value in assay [1] (peptide .05 mM, 25° C.) stood at 7.7 h; in assay [1] (peptide .1 mM, 25° C.), 5.5 h; in assay [1] (peptide .15 mM, 25° C.) it was 3.5 h; in assay [1] (peptide .2 mM, 25° C.) it was 2.4 h; in assay [1] (peptide .246 mM, 25° C.), 2.1 h; in assay [1] (peptide .3 mM, 25° C.), 1.7 h. Also, the “t1/2 of PAI-1 inactivation” value is 1.4 h in assay [1] (peptide .4 mM, 25° C.); “.87 h” in assay [1] (peptide .5 mM, 25° C.); “.71 h” in assay [1] (peptide .6 mM, 25° C.). The kobs result was “.13 h⁻¹” in assay [1] (peptide .1 mM, 25° C.); “.20 h⁻¹” in assay [1] (peptide .15 mM, 25° C.); “.28 h⁻¹” in assay [1] (peptide .2 mM, 25° C.); “.42 h⁻¹” in assay [1] (peptide .3 mM, 25° C.); “.48 h⁻¹” in assay [1] (peptide .4 mM, 25° C.); “.79 h⁻¹” in assay [1] (peptide .5 mM, 25° C.). In addition, the kobs result in assay [2] (peptide .05 mM) was “.090 h⁻¹”; in assay [2] (peptide .246 mM) it was “.33 h⁻¹”; in assay [2] (peptide .6 mM) it was “.98 h⁻¹”. The “electrophoretic mobility of active PAI incubated with peptide, native gel” value in assay [3] was “Only a single major band”. Moreover, the IC50 in assay [2] came out at 1.6 mM. Further, the “half-life of PAI-1 decreased to” value in assay [2] was determined as 1.2 h.

In the case of “Ac-TVASSSTA [SEQ ID NO: 2, Thr-Val-Ala-Ser-Ser-Ser-Thr-Ala]”, in assay [1] (25° C.), the “lowest PAI-1 functional half-life obtained with increasing concentrations of peptide” value turned out to be 0.7 h. Besides, the “t1/2 of PAI-1” value in assay [1] (peptide 55 μM, 25° C.) was “over 400 min”. Moreover, in assay [1] (peptide .015 mM, 25° C.), the k stood at 1.7 M⁻¹ s⁻¹, the kobs entry is “.093 h⁻¹” and the “t1/2 of PAI-1 inactivation” value was 7.5 h. In assay [1] (peptide .025 mM, 25° C.), the k result is “.99 M⁻¹ s⁻¹”, the kobs result is “.089 h⁻¹” and the “t1/2 of PAI-1 inactivation” value was 7.8 h. Besides, in assay [1] (peptide .045 mM, 25° C.), the k amounted to 6.9 M⁻¹ s⁻¹, the kobs was determined as 1.1 h⁻¹ and the “t1/2 of PAI-1 inactivation” value is “.62 h”. In assay [1] (peptide .064 mM, 25° C.), the k was 42 M⁻¹ s⁻¹, the kobs turned out to be 9.6 h⁻¹ and the “t1/2 of PAI-1 inactivation” value is “.072 h”. Besides, the “electrophoretic mobility of active PAI incubated with peptide, native gel” value in assay [3] was “two bands”. In assay [2], the half-inhibitory concentration (IC50) came out at 0.23 mM and the “half-life of PAI-1 decreased to” value came out at 0.717 h.

heparin: the “shortening of the APTT by thrombus extract” value in assay [4] (2.5 μL of thrombus extract per 100 μL of heparinized plasma) is on record as “approximately 20 seconds”. For the same substance, in assay [4] (heparin 0.12 U/mL), the “prolongation of the APTT” value is listed as “approximately 2 × control”.

hirudin: in assay [4] (hirudin 0.17 μg/mL), the “effect of thrombus extracts on capacity to prolong the APTT” value was “no effect” and the “prolongation of the APTT” value is on record as “approximately twice”.

Source of the values: patent US5639726A, “Peptide mediated enhancement of thrombolysis methods and compositions” (The Regents of the University of Michigan, priority 1994, dated 1997).
